What all share (assay): biochemical
The target of one test is MAPKAPK3 (Homo sapiens, UniProt Q16644). More on the design: gene MAPKAPK3. To be noted: read-out: Dundee KSS % inhibition at 1uM. Here is the method: The METi and RAFi were screened against kinase panels (SelectScreen, Invitrogen; University of Dundee, Division of Signal Transduction Therapy, UK; Upstate Biotechnology/Millipore, Billerica, MA). In these selectivity assays the concentration of ATP was set to the Km value of ATP for each kinase tested to allow for a relative potency comparison between the various kinases. The compounds were tested at 1 µM final concentration. […] (A) Kinase selectivity screen (KSS) performed at Upstate Biotechnology. […] (B) KSS performed at University of Dundee (Division of Signal Transduction Therapy). […] (PDF) Click here for additional data file.

For the next test, the target named is SRPK1 (Homo sapiens, UniProt Q96SB4). Further details: University of Dundee kinase panel, percent inhibition of phosphorylation at 1 uM RAFi, ATP at Km. To be noted: read-out: Dundee KSS %inh at 1 uM. Here is the method: (§1) The METi and RAFi were screened against kinase panels (SelectScreen, Invitrogen; University of Dundee, Division of Signal Transduction Therapy, UK; Upstate Biotechnology/Millipore, Billerica, MA). In these selectivity assays the concentration of ATP was set to the Km value of ATP for each kinase tested to allow for a relative potency comparison between the various kinases. The compounds were tested at 1 µM final concentration. […] Supplementary file pone.0039653.s002.pdf: Figure S2 Kinase Selectivity Screen of RAFi. (A) Kinase selectivity screen (KSS) performed at University of Dundee (Division of Signal Transduction Therapy). Values in % inhibition of phosphorylation given 1 µM of RAFi compared to control. (B) KSS performed at Invitrogen (Selectscreen Service) compared to control. Values in % inhibition of phosphorylation given 1 µM of RAFi. (C) Cell based dose response kinase inhibition of indicated kinases by RAFi. (PDF) Click here for additional data file.

The next test deals with T1, PDK1 (Homo sapiens, UniProt O15530).
T1 construct: gene PDPK1
More on the design: University of Dundee kinase panel, percent inhibition of phosphorylation at 1 uM RAFi, ATP at Km. The conditions noted are these: read-out: Dundee KSS %inh at 1 uM. How it is done:
as §1

In the next test the target is T2, IKKb (Homo sapiens, UniProt O14920).
T2 construct: gene IKBKB
Further details: University of Dundee kinase panel, percent inhibition of phosphorylation at 1 uM RAFi, ATP at Km. The conditions noted are these: read-out: Dundee KSS %inh at 1 uM. Here is the method:
as §1

In the next test the target is DYRK3 (Homo sapiens, UniProt O43781). Further details: University of Dundee kinase panel, percent inhibition of phosphorylation at 1 uM RAFi, ATP at Km. The conditions noted are these: read-out: Dundee KSS %inh at 1 uM. Here is the method: as §1
The target in a further test is T3, CaMK1a (Homo sapiens, UniProt Q14012).
T3 construct: gene CAMK1
Further details: University of Dundee kinase panel, percent inhibition of phosphorylation at 1 uM RAFi, ATP at Km. The conditions noted are these: read-out: Dundee KSS %inh at 1 uM. Here is the method: as §1

The target of another test is T4, MST2 (Homo sapiens, UniProt Q13188).
T4 construct: gene STK3
More on the design: University of Dundee kinase panel, percent inhibition of phosphorylation at 1 uM RAFi, ATP at Km. The conditions noted are these: read-out: Dundee KSS %inh at 1 uM. How it is done:
as §1

A further test has as its target T5, SGK (Homo sapiens, UniProt O00141).
T5 construct: gene SGK1
Further details: University of Dundee kinase panel, percent inhibition of phosphorylation at 1 uM RAFi, ATP at Km. To be noted: read-out: Dundee KSS %inh at 1 uM. How it is done:
as §1

For another test, the target named is T6, MLCK (Homo sapiens, UniProt Q15746).
T6 construct: gene MYLK
More on the design: University of Dundee kinase panel, percent inhibition of phosphorylation at 1 uM RAFi, ATP at Km. To be noted: read-out: Dundee KSS %inh at 1 uM. How it is done: as §1

A further test deals with T7, rat MNB (Rattus norvegicus, UniProt Q63470).
T7 construct: gene Dyrk1a
Further details: University of Dundee kinase panel, percent inhibition of phosphorylation at 1 uM RAFi, ATP at Km. The conditions noted are these: read-out: Dundee KSS %inh at 1 uM. How it is done: as §1

A further test addresses T8, mouse ERK2 (Mus musculus, UniProt P63085).
T8 construct: gene Mapk1
More on the design: University of Dundee kinase panel, percent inhibition of phosphorylation at 1 uM RAFi, ATP at Km. To be noted: read-out: Dundee KSS %inh at 1 uM. How it is done: as §1

The target of another test is PIM1 (Homo sapiens, UniProt P11309). More on the design: University of Dundee kinase panel, percent inhibition of phosphorylation at 1 uM RAFi, ATP at Km. The conditions noted are these: read-out: Dundee KSS %inh at 1 uM. Here is the method: as §1
The target of the next test is T9, rat RSK1 (Rattus norvegicus, UniProt Q63531).
T9 construct: gene Rps6ka1
More on the design: University of Dundee kinase panel, percent inhibition of phosphorylation at 1 uM RAFi, ATP at Km. To be noted: read-out: Dundee KSS %inh at 1 uM. How it is done:
as §1

The target of the next test is T10, EEF-2 kinase (Homo sapiens, UniProt O00418).
T10 construct: gene EEF2K
Further details: University of Dundee kinase panel, percent inhibition of phosphorylation at 1 uM RAFi, ATP at Km. The conditions noted are these: read-out: Dundee KSS %inh at 1 uM. How it is done:
as §1

The next test deals with NEK6 (Homo sapiens, UniProt Q9HC98). Further details: University of Dundee kinase panel, percent inhibition of phosphorylation at 1 uM RAFi, ATP at Km. The conditions noted are these: read-out: Dundee KSS %inh at 1 uM. How it is done: as §1
The next test deals with T11, RSK2 (Homo sapiens, UniProt P51812).
T11 construct: gene RPS6KA3
Further details: University of Dundee kinase panel, percent inhibition of phosphorylation at 1 uM RAFi, ATP at Km. The conditions noted are these: read-out: Dundee KSS %inh at 1 uM. How it is done: as §1

The target of a further test is T12, p38 (Homo sapiens, UniProt Q16539).
T12 construct: gene MAPK14
Further details: University of Dundee kinase panel, percent inhibition of phosphorylation at 1 uM RAFi, ATP at Km. To be noted: read-out: Dundee KSS %inh at 1 uM. Here is the method:
as §1

The target of another test is PIM3 (Homo sapiens, UniProt Q86V86). Further details: University of Dundee kinase panel, percent inhibition of phosphorylation at 1 uM RAFi, ATP at Km. The conditions noted are these: read-out: Dundee KSS %inh at 1 uM. How it is done: as §1
The target of a further test is PLK1 (Homo sapiens, UniProt P53350). More on the design: University of Dundee kinase panel, percent inhibition of phosphorylation at 1 uM RAFi, ATP at Km. The conditions noted are these: read-out: Dundee KSS %inh at 1 uM. Here is the method: as §1

Data on two molecules can be found in PMC3382171 (PLoS ONE, 2012).

SMILES strings stand for the structures.

T5 sequence (O00141 whole entry): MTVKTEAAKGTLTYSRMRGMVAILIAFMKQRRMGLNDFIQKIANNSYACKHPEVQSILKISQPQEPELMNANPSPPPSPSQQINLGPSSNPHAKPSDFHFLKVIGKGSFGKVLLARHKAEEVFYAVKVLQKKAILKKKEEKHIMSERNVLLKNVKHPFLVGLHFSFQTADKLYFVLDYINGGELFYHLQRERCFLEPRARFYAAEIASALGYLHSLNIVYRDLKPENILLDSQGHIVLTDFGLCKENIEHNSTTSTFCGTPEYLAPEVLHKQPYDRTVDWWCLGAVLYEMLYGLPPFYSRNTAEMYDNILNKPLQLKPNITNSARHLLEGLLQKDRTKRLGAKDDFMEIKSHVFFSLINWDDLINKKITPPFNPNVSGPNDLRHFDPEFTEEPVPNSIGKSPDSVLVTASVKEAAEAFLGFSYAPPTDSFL
T2 sequence (O14920 whole entry): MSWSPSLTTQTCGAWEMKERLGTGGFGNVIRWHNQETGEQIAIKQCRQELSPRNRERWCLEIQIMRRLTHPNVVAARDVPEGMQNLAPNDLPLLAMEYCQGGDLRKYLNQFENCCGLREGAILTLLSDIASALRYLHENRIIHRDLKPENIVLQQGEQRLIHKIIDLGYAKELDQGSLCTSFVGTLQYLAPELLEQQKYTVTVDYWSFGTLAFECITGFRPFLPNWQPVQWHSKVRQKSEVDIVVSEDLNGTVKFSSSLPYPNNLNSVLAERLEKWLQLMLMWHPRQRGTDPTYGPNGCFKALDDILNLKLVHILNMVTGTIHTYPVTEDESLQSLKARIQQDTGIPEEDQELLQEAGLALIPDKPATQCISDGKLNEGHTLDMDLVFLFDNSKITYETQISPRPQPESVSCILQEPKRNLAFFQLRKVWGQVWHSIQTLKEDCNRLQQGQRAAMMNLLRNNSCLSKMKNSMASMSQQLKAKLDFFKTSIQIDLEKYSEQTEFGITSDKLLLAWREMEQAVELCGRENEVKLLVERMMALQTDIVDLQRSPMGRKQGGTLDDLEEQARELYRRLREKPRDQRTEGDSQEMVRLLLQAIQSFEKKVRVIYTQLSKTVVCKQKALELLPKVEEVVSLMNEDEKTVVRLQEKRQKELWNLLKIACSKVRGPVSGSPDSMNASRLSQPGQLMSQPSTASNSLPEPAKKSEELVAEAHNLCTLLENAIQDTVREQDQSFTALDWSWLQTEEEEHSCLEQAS
T6 sequence (Q15746 whole entry): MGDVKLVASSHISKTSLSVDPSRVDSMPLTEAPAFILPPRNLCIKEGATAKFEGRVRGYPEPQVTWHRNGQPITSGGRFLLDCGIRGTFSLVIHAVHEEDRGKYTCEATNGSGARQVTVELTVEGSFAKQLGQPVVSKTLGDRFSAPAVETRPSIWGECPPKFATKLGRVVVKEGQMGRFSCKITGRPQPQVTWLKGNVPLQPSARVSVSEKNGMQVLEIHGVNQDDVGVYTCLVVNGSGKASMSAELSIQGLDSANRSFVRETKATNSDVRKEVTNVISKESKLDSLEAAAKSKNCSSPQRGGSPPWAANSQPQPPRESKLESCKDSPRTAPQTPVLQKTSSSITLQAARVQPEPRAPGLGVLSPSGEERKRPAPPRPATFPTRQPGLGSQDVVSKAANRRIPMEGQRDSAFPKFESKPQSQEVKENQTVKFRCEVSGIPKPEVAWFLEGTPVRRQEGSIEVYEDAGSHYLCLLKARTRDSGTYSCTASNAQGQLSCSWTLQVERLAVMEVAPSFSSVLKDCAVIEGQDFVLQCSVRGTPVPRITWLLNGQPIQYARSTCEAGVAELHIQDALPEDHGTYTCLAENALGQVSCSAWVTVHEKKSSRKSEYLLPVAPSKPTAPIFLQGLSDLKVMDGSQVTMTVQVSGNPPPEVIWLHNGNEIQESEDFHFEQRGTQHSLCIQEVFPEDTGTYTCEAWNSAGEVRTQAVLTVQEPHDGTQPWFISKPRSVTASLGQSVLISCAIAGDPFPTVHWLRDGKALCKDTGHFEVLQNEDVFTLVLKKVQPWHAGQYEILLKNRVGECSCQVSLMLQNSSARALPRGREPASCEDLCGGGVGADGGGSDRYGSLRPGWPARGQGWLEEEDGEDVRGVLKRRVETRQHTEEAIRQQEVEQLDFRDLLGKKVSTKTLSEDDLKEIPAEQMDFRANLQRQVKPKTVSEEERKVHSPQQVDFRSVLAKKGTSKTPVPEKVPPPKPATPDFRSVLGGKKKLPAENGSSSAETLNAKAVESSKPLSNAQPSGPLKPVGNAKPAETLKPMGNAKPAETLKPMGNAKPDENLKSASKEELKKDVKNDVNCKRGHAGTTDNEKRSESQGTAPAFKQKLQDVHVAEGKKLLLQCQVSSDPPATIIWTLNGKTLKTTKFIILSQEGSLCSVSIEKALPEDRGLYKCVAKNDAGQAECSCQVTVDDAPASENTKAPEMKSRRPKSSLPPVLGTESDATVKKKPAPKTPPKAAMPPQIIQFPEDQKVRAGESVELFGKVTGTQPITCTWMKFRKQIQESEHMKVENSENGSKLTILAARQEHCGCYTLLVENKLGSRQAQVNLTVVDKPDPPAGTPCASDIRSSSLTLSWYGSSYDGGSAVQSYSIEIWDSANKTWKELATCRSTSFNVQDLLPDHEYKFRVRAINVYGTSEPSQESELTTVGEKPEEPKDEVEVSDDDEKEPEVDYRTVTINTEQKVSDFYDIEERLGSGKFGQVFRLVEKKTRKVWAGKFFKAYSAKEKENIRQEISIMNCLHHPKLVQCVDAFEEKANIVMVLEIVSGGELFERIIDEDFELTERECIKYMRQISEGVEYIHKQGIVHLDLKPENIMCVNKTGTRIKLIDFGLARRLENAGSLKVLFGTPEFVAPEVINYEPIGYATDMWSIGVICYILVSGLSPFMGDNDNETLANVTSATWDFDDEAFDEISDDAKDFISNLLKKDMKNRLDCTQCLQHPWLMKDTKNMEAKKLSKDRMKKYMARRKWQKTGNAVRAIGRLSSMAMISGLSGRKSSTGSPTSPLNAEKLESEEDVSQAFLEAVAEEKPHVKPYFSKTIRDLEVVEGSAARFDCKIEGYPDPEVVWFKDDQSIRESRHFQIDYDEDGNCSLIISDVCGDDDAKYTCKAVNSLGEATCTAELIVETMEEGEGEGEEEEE
T3 sequence (Q14012 whole entry): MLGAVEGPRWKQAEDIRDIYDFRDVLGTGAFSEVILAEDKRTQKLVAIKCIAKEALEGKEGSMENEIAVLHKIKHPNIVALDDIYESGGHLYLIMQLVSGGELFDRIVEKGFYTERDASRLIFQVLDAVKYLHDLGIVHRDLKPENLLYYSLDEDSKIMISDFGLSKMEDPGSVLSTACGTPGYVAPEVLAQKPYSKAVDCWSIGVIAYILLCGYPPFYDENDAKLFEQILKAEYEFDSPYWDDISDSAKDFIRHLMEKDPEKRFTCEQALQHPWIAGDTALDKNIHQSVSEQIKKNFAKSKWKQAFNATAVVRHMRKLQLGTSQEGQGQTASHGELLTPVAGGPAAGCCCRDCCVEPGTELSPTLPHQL
T12 sequence (Q16539 whole entry): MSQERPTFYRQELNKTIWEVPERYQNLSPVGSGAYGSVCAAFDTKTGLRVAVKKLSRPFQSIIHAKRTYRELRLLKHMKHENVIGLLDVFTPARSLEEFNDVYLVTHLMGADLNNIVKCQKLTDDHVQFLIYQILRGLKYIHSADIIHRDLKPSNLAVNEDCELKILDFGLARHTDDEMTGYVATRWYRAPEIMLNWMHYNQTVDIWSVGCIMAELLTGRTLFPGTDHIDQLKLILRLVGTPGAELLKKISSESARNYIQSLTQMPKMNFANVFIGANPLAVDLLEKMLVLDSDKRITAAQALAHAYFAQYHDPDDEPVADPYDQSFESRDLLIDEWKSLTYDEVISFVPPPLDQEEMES
Sequence of PLK1 (P53350 whole entry): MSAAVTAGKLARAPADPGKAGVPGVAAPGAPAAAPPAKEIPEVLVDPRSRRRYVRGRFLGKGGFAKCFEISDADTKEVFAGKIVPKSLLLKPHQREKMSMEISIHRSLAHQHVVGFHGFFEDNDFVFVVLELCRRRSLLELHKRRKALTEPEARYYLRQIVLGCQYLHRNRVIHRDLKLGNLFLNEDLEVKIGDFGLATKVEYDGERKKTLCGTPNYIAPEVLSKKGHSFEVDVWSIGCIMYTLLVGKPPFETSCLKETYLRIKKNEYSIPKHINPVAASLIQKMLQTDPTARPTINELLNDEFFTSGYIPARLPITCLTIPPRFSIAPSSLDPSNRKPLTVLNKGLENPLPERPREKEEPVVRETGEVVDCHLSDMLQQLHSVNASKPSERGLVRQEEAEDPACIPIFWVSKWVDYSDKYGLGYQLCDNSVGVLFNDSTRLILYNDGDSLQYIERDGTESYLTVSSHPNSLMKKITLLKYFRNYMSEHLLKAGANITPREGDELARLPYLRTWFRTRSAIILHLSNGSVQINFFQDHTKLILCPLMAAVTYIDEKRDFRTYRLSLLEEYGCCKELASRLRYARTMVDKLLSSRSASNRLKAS

Take `OCCn1cc(-c2cnc3nnn(Cc4ccc5ncccc5c4)c3n2)cn1` [METi, PF-04217903]: the inhibition at 1 µM at MAPKAPK3 worked out at 18.6%.

For the molecule `N#CCCNc1nccc(-c2cn(CC(F)F)nc2-c2cnc3[nH]ccc3c2)n1` [RAFi, PF-04880594], the inhibition at 1 µM at SRPK1 was 5%; on PDK1 it was 11%; on IKKb, 4%; at DYRK3 it was 11%; at CaMK1a, 18%; on MST2, 63%. The inhibition at 1 µM at SGK is 4%; at MLCK it was 22%; at rat MNB, 4%; at mouse ERK2 it was 48%; on PIM1 it was 4%; at rat RSK1, 29%. In addition, the inhibition at 1 µM at EEF-2 kinase stood at 0%; at NEK6, 13%; at RSK2, 30%; on p38, 96%; on PIM3 it was 3%; at PLK1, 47%.
